Assay results: patent publication US20210283249A1, “COMBINATION THERAPY FOR CANCER WITH EXON 14 SKIPPING MUTATION(S) OR EXON 14 SKIPPING PHENOTYPE” (Eli Lilly and Company, priority 2016, published 2021)
Like-named read-outs stand apart in the source and are kept apart here.

Key:
Hs746t cells = assay: Hs746t cell proliferation; assay type: cell-based, human
Excerpt: (§1) Hs746t is a gastric cancer cell line known to have MET exon 14 skipping mutation(s) and MET amplification (Asaoka et al., Biochem Biophys Res Commun 394:1042-1046).

[1] = system: Hs746t-derived xenograft of human gastric carcinoma; assay: Hs746t xenograft model, Example 2 (sequential and concurrent administration); assay type: in vivo, mice
Experimental: (§2) Female athymic nude mice (Envigo) are used for this study. Food and water are available ad libitum. Animals are acclimated for 1 week prior to any experimental manipulation. The study is performed in accordance with AAALAC accredited institutional guidelines.
Merestinib is formulated as a solution in 10% PEG 400/90% (20% Captisol in water). Emibetuzumab and IgG control are diluted in PBS. Solutions are freshly prepared every 7 days.
Obtain, maintain, expand, harvest, and wash Hs746t cell as in Example 1. Implant cells into 36 female nu/nu mice at a concentration of 2×10^6 cells in 0.2 ml HBSS subcutaneously into the hind flank of the animal. […] After the 28-day dosing period, animals in the single agent arms are sacrificed. Tumors in the animals in the combination treatment groups are monitored for continued growth or regrowth of tumors.
In these studies, animals are sacrificed using CO2 and cervical dislocation when tumors grow larger than 2000 mm^3, or at the end of study.
Measure tumor volumes and body weight at least twice weeky. Body weight measurement during the course of the study, is a general indicator of tolerability.
(§3) Measure tumor growth with calipers and record body weights twice weekly. Calculate tumor volumes by the formula Volume (mm^3)=L×W^2 (π/6) where L represents the larger diameter and W the smaller diameter. Calculate T/C % using the formula T/C %=100×ΔT/ΔC. Where ΔT=mean tumor volume of the drug-treated group on the final day of the study−mean tumor volume of the drug-treated group on the initial day of the dosing and ΔC=mean tumor volume of the control group on the final day of the study−mean tumor volume of the control group on the initial day of the dosing. Calculate changes in body weight by the formula (Weight on observation day−Weight on day 12)/Weight on Day 12×100. Calculate test for significant differences between treatment groups by RM ANOVA using the JMP (v.9.0.3) statistical package (SAS Institute Inc., Cary, N.C., USA).
Transform tumor volume to the log scale to equalize variance across time and treatment groups. Analyze the log volume data with a two-way repeated measures analysis of variance by time and treatment using the MIXED procedures in SAS software (Version 9.3). The correlation model for the repeated measures is spatial power. Compare treated groups to the control group at each time point. The MIXED procedure is also used separately for each treatment group to calculate adjusted means and standard errors at each time point. Both analyses account for the autocorrelation within each animal and the loss of data that occurs when animals are removed or lost before the end of the study. The adjusted means and standard errors are plotted for each treatment group versus time. […]

[2] = system: Hs746t-derived xenograft of human gastric carcinoma; assay: Hs746t xenograft model, Example 1 (combination vs monotherapy); assay type: in vivo, mice
Experimental: as §1, §2
Merestinib is formulated as a solution in 10% PEG 400/90% (20% Captisol in water). Emibetuzumab is diluted in phosphate buffered saline (PBS). Solutions are freshly prepared every 7 days.
Obtain Hs746t cells from ATCC (American Type Culture Collection) and maintain in RPMI 1640 with 10% fetal bovine serum at 37° C. in 5% CO2. Expand cells in culture, harvest, and wash in Hank's Balanced Salt Solution (HBSS, GIBC®). Implant sub-confluent […] cells into 60 female nu/nu mice at a concentration of 1×10^7 cells in 0.2 ml HBSS subcutaneously into the hind flank of the animal.
Administer merestinib by oral gavage at either 6 mg/kg or 12 mg/kg in a dose volume of 0.2 mL in 10% polyethylene glycol 400/90% of a mixture of 20% Captisol in water, and antibody treatments by intraperitoneal injection (IP) starting on day 12 after tumor cell implantation when average tumor volume of 350 mm^3 and ending on Day 33. Inject animals IP in a dosing volume of 10 mg/kg. After 14 days of dosing (Study Day 27), the animals in the control group are sacrificed because of tumor volumes exceeding >2000 mm^3. After the 28-day dosing period, animals in the single agent arms are sacrificed. […]
In both studies, animals are sacrificed using CO2 and cervical dislocation when tumors grow larger than 2000 mm^3, or at the end of study.
Record tumor growth and body weight changes at least twice a week. Body weight measurement during the course of the study, is a general indicator of tolerability.
as §3, with “RMANOVA” for “RM ANOVA”
The p-value from the 2×2 interaction test on day 28 is not significant at p=0.654. All pairwise comparisons between the combination group and each single agent group on day 33 are also statistically significant. […] Full statistical analysis is not feasible as the animals in the vehicle control groups were removed after 14 days of dosing as the animals are sacrificed due to tumor burden.

pMET = pMET in Hs746t cells; assay type: cell-based, human

With `Cc1ccc(C(=O)Nc2ccc(Oc3cc4cnn(C)c4cc3-c3cn[nH]c3)c(F)c2)c(=O)n1-c1ccc(F)cc1` [merestinib, N-(3-Fluoro-4-(1-methyl-6-(1H-pyrazol-4-yl)-1H-indazol-5-yloxy)phenyl)-1-(4-fluorophenyl)-6-methyl-2-oxo-1,2-dihydropyridine-3-carboxamide] the IC50 (Hs746t cells; Homo sapiens) was 34 nM, the “tumor volume on re-growth while on treatment” value ([1]; merestinib 6 mg/kg qd single agent, by Day 37) was “about 500 mm^3” and the maximal tumor regression ([1]; merestinib 6 mg/kg qd, Day 27 (7 days of dosing)) was 30.2%. The tumor response course ([2]; merestinib 6 mg/kg qd orally) was “transient tumor regression followed by re-growth while on treatment”, the T/C ([2]; merestinib 6 mg/kg qd orally, after 21 day dosing) was 18.3% and the “mice with no tumor regrowth” value ([2]; merestinib 12 mg/kg cohort, during the 5 weeks post-treatment) was 6/7. For the same compound, the tumor regression ([2]; merestinib 12 mg/kg qd orally, after 21 day dosing) was 91.8% and the “effect on pMET” value (pMET; at 65-100 nM) was “totally eliminates”.

With “emibetuzumab: C8-H241-IgG4 anti-human MET antibody: two light chains of SEQ ID NO: 5 and two heavy chains of SEQ ID NO: 7” the IC50 (Hs746t cells) was > 100 nM, the maximum tumor regression ([1]; emibetuzumab 10 mg/kg qw, Day 27) was 16.0% and the maximum tumor regression ([1]; emibetuzumab 20 mg/kg qw, Day 37) was 58.9%. The tumor response course ([2]; emibetuzumab 10 mg/kg IP qw) was “tumors are observed to regrow while on treatment”, the transient tumor regression ([2]; emibetuzumab 10 mg/kg IP qw, after 3 doses) was 37.7% and the “effect on pMET expression” value (pMET; at 130-650 nM) was “no effect”.
